Test results reported in US20180020667A1, “CHEMICAL COMPOSITIONS THAT PRESENT SYNERGIC EFFECT FOR […] INSECTS IN PERSONAL HYGIENE PRODUCTS, COSMETICS FOR HUMAN USE, IN ANIMALS AND ON INANIMATE SURFACES IN GENERAL” (Universal Chemical Ltda., priority 2016, published 2018).
Like-named read-outs stand apart in the source and are kept apart here.

How the values were obtained:
[1] = tested on: insects; conditions: cited from earlier work
[2] = tested on: insects; experiment: Length of protection against insect bites after application on the skin (conducted tests); format: in vivo
Source text: Icaridin and DEET are employed in this synergic mixture as active ingredient.

[3] = 5% active ingredient in the repellent
[4] = 10% active ingredient in the repellent
[5] = 15% active ingredient in the repellent
[6] = 20% active ingredient in the repellent

| Compound | Repellent Capacity Length of Protection [1, 3] [h] | Repellent Capacity Length of Protection [1, 4] [h] | Repellent Capacity Length of Protection [1, 5] [h] | Repellent Capacity Length of Protection [1, 6] [h] | Repellent Capacity Length of Protection ([1]; 50% active ingredient in the repellent) [h] | Length of protection against insect bites ([1]; concentration of 50%) [h] | Length of protection against insect bites ([2]; 7% concentration in the insect repellent) [h] | Length of protection against insect bites ([2]; 50% concentration in the insect repellent) [h] | Length of protection against insect bites ([1]; concentrations between 20 to 25%) | Length of protection against insect bites ([2]; 10% concentration in the insect repellent) [h] | Length of protection against insect bites ([2]; 20% concentration in the insect repellent) [h] |
| --- | --- | --- | --- | --- | --- | --- | --- | --- | --- | --- | --- |
| N,N-dimethyl-3-methylbenzamide [DEET] | 1 | 2 | 4 | 6 | 10 | 10 | 2 | 10 | – | – | – |
| CCC(C)OC(=O)N1CCCCC1CCO (stereo not drawn) [Icaridin, 1-piperidinecarboxylic acid, 2-(2-hydroxyethyl)-, 1-methylpropyl ester] | 1.5 | 4 | 7 | 10 | – | – | – | – | up to 10 hours | 4 | 10 |
